Experiment [1] deals with 22Rv1 cells. Type of experiment: cell-based, human.
Experiment [2] has as its system 22Rv1 cells.
In experiment [3] the test system is 22Rv1 cells. Kind of experiment: MTT cytotoxicity test, 22Rv1 cells. It is filed as cell-based, human. The method, then: (§1) A total of 6000 cells/well were seeded in 96-well plates, incubated overnight, and treated with the drugs in 100 μL/well of the corresponding fresh culture media for 48 h, as previously described. For combinational assays, the cells were pre-treated with the corresponding inhibitor for the indicated time and then co-treated with the tested compounds for 48 h. Then, 10 μL/well of MTT ((3-(4,5-dimethylthiazol-2-yl)-2,5-diphenyltetrazolium bromide) solution was added and the cell viability was measured as previously reported.
(Tetrazolium dyes change colour on reduction, which living cells bring about.)

The test system of another experiment is PNT2 cells. Briefly: MTT cytotoxicity test, PNT2 cells. It is filed as cell-based, human. The method, then:
as §1

A further experiment concerns PC-3 cells. Type of experiment: cell-based, human.
[4] abbreviates: Homo sapiens, PNT2, 48 h, MTT, non-cancer prostate cells.

Like-named read-outs stand apart in the source and are kept apart here. A value given as a limit tells only on which side of the number the result lay.

With `COc1ccc(C[C@H]2NC[C@H](O)[C@H]2OC(C)=O)cc1` [Aniso, anisomycin], the “effect of pre-treatment with pan-caspase inhibitor zVAD on induced apoptosis” value in the experiment with 22Rv1 cells [1] is “Comparable effects”.
As to “2-[2-(3-chlorophenyl)hydrazinylyidene]propanedinitrile [CCCP]”, the “effect on mitochondrial membrane potential (ΔΨm)” value with 22Rv1 cells [2] is given as “provoked mitochondrial membrane depolarization”.
As usually defined, the IC50 is the concentration that gives 50% inhibition. For `CC1=C(O)C(=O)c2c(ccc(O)c2O)C1=O` [Compound 12, dioncoquinone B], the IC50 in the experiment on 22Rv1 cells [3] (Homo sapiens, 22Rv1, 48 h, MTT) is 89.5 ± 24.9 µM; in the experiment with PNT2 cells (setting [4]), above 100 µM.
Take `O=C1C(O)=C(CSCCCl)C(=O)c2c(O)c(Cl)c(Cl)c(O)c21` [Compound 37, 6,7-Dichloro-2-((2-chloroethylthio)methyl)-3,5,8-trihydroxy-1,4-naphthoquinone]: in the experiment with 22Rv1 cells [3], the IC50 came to 48.6 ± 12.2 µM and the “Selectivity Index [IC50(PNT2)/IC50(22Rv1)]” value stood at 0.58. Moreover, the half-inhibitory concentration (IC50) with PNT2 cells is 28.2 ± 1.04 µM.
For the compound `COc1ccc2c(c1O)C(=O)C(O)=C(C)C2=O` [Compound 11, ancistroquinone B], the IC50 in the experiment on 22Rv1 cells [3] (Homo sapiens, 22Rv1, 48 h, MTT) was above 100 µM; with PNT2 cells (setting [4]), above 100 µM.
Regarding `COc1cc2c(c(OC)c1OC)C(=O)C(CSCCCl)=C(O)C2=O` [Compound 34, 3-((2-Chloroethylthio)methyl)-2-hydroxy-5,6,7-trimethoxy-1,4-naphthoquinone], the half-maximal inhibitory concentration (IC50) in the experiment on 22Rv1 cells [3] and in the experiment on PNT2 cells was above 100 µM each time.
With `COc1cc(O)c2c(c1O)C(=O)C(O)=C(CSCCCl)C2=O` [Compound 38, 2-((2-Chloroethylthio)methyl)-3,5,8-trihydroxy-6-methoxy-1,4-naphthoquinone], the half-inhibitory concentration (IC50) with 22Rv1 cells [3] and with PNT2 cells was above 100 µM in each case.
For `CC(=O)O[C@@H]1O[C@H](CSC2=CC(=O)c3c(O)c(C)c(C)c(O)c3C2=O)[C@@H](OC(C)=O)[C@H](OC(C)=O)[C@H]1OC(C)=O` [SAB-1], the “increase in activity in PC-3 cells on introduction of the 2-chloroethylthio group” value in the experiment with PC-3 cells was found to be 5 fold.

For the origin of these results see paper PMC8540265, “Activity of New Synthetic (2-Chloroethylthio)-1,4-naphthoquinones in Prostate Cancer Cells” (Pharmaceuticals, 2021).
